Measurements from US9974856B2, “Method of treating androgen deficiency in women” (Parapharm Ltd., priority 2009, dated 2018).

Test system: human subject with diagnosed osteopenia
Assay: Mineral bone density (forearm scanner DXT-200) and serum calcium in a subject with osteopenia
Type: in vivo
Details: after a one-month break in the administration, following six-month course of 1 g 3 times a day
Method: A human subject. The mineral bone density of T−1.4 was measured in the distal antibrachium by means of the forearm scanner DXT-200 available from Osteometer MediTech, Inc. Osteopenia was diagnosed and 1 g of calcium gluconate was administered 3 times a day. A six-month course of preventive medication was conducted. […] That is, the mineral bone density (MBD) became less. […] For reference: MBD normal value—the values of T criterion with a standard deviation of +1 to −1 from the peak bone mass; • 1st degree osteopenia—MBD of −1 to −1.5; • 2nd degree osteopenia—MBD of −1.5 to −2; • 3rd degree osteopenia—MBD of −2 to −2.5; • 1st degree osteoporosis—MBD of −2.5 and less without fractures; • 2nd degree osteoporosis—MBD of −2.5 and less with osteoporotic bone fractures. The densitometric T scale presents the number of standard deviations up and down an average bone mass value. The T criterion decreases in parallel with a gradual reduction in the bone mass with age and is used to evaluate the MBD in adults.
The same human subject with diagnosed osteopenia and the mineral bone density of T −1.6 was administered one capsule of the claimed biologically active food additive 3 times a day A six-month preventive medication course was conducted following the pattern of one-month administration/one-month break. The mineral bone density increased to T −1.2. The serum calcium value normalized. […]

Q: Which serum calcium value does the source give for calcium gluconate here?
A: below the normal value
